Laboratory results as given in patent publication US10765128B2, “Composition for prevention or treatment of metabolic syndrome or for antioxidation containing black bean leaf extracts and flavonol glysosides isolated therefrom as active ingredients” (KOREA RESEARCH INSTITUTE OF BIOSCIENCE AND BIOTECHNOLOGY, priority 2015, dated 2020).
Where two headings read alike, the source gives them in different places.

Columns and labels:
MIN6 β-cells = test: insulin secretion in 30 mM glucose-induced MIN6 β-cells (ELISA insulin kit); type: cell-based, mouse; conditions: for activation at 100 µM: Mus musculus, MIN6, 0.5 h, sample concentration 100 μM, read-out: Increase (%) in Insulin Secretion Amount in 30 mM Glucose-induced MIN6 Pancreatic β-Cells; for increase in amount of insulin secretion relative to its aglycone: 100 μM, Formula 4 vs quercetin, Formula 7 vs isorhamnetin
Protocol: MIN6 β-cells, which is a mouse pancreatic. β-cell strain, was cultured in DMEM (Lonza Co.) containing 15% FBS (Gibco Co.), 100 units/ml penicillin, and 100 μg/ml streptomycin at 37° C. in a humid 5% CO2 incubator.
MIN6 cells were seeded into a 24-well plate (1×10^5 cells/well) and cultured at 37° C. in a humid 5% CO2 Incubator. In 48 hours later, the medium was first replaced with a DMEM without glucose contained therein, after which a resulting medium was left alone for 60 minutes, such that the black soybean (seoritae) leaf extract and the flavonol glycoside compounds, samples of the present invention, were treated at a certain concentration, into the DMEM with 30 mM glucose contained therein, thus being reacted for 30 minutes. A control group was one without a sample added therein under the same condition as described above, and the insulin secreted into the medium was measured by using an ELISA insulin kit (Alpco diagnostics). […]

[1] = DPPH radical scavenging activity; conditions: sample concentration 50 μM
Protocol: Two mL of a DPP solution was mixed in 1 mL of a test substance solution, after which a resulting mixture was stirred well. An optical density was measured at 517 nm at an interval of 1 minute for 20 minutes by using an UV/Vis spectrophotometer to evaluate the degree of DPPH radical scavenging activity.

[2] = biological target: α-glucosidase (EC 3.2.1.20, Baker Yeast) (Saccharomyces cerevisiae, UniProt P53341); test: α-glucosidase inhibitory activity (nitrophenol method); type: biochemical; conditions: sample concentration 100 μM
Protocol: Specifically, the α-glucosidase inhibitory activity was performed using the nitrophenol method as described by Kato, et al., (J. Med. Chem 48: 2036-2044, 2005) with slight modification. An accumulation amount was measured by the optical density of a chromophoric group of monosaccharides such as glucose, which was generated by hydrolysis of a substrate p-nitrophenyl-[…] (Sigma-Aldrich) by means of α-glucosidase (EC 3.2.1.20, Baker Yeast).
Fifty μl of a buffer solution (70 mM calcium phosphate, pH 6.8), 50 μl of a sample extract or a compound dissolved in 50% DMSO, and 50 μl of α-glucosidase (0.1 unit/ml) were injected into a 96-well plate (NUNC™ Co.) and a substrate (5 mM, p-nitrophenyl-α-D-glucopyranoside) was finally added therein, after which a resulting plate was reacted at 37° C. for 30 minutes, such that 2 M NaOH was added therein to finish a reaction thereof. An amount of a chromophoric group generated was measured at 405 nm by using a microplate reader (ANTHOS™ Co.) to calculate an inhibitory activity.

RAW264.7 cells = test: ROS accumulation inhibitory activity in LPS-stimulated RAW264.7 cells (DCFH2-DA); type: cell-based; conditions: Mus musculus, sample concentration 100 μM, LPS 1 μg/ml
Protocol: A test substance for each concentration was prepared with DMEM, after which the test substance was added by each 100 μL/well therein, thus being reacted for 2 hours. Then, the cells were stimulated for 18 hours with LPS (1 μg/ml) treatment, such that DCFH2-DA (2′,7′-dichlorofluorescein diacetate) was added therein at a final concentration of 15 μM, thus being reacted for 30 minutes. Once a reaction was finished, the cells were washed five times with PBS and which a fluorescence value of DCF was measured on a spectrofluorimeter (480/530, ex/em). (Hayakaya M. et. al., EMBO J., 22: 3356-3866, 2003).

human recombinant DPP-IV = biological target: T1, human recombinant DPP-IV (Homo sapiens, UniProt P27487); test: DPP-4 inhibitory activity (Ala-Pro-AFC substrate, fluorometer); type: biochemical; conditions: for inhibition at 200 µM: read-out: DPP-4 Inhibitory Activity (%); for DPP-4 Inhibitory Activity (%): 200 µM
T1 construct: purchased ProSpec
Protocol: Particularly, the black soybean (Seoritae) leaf extract (100 μg/ml) and the flavonol glycoside compound (200 μM) were dissolved in DMSO to prepare a sample solution. Then, 10 μl of a human recombinant DPP-IV (ProSpec, the U.S.) at a concentration of 1 μg/ml, 78 μl of an incubation buffer solution (50 mM Tris, pH 7.5), and 2 μl of the sample solution prepared above were added to a 96-well microplate, after which 16 μl (a final concentration reached 40 μM) of a substrate alanine-proline-7-amino-4-trifluoromethyl-coumarin (Ala-Pro-AFC) (Enzyme System Product Co.) was added therein, and initiated the reaction. After a reaction progressed at a room temperature for 60 minutes, an amount of AFC, which was a product generated, was measured by using a fluorometer, and identified DPP4 inhibitory activities of the black soybean (Seoritae) leaf extract and the flavonol glycoside compounds by means of Equation 1. […] DPP-4Inhibitory activity (%)=100−(A/A1×100) [Equation 1]
A: AFC concentration of sample
A1: AFC concentration of a negative control group

[3] = test system: LDL (low-density lipoprotein); test: LDL-antioxidant activity, Cu2+-induced LDL oxidation (TBARS method); type: biochemical; conditions: for IC50: read-out: LDL Oxidation Inhibitory Activity, IC50 value; for LDL Oxidation Inhibitory Activity: sample concentration 100 μM
From the text: Med. Chemn. Lett. 14: 2719-2723, 2004). Results thereof were shown in a following Table 9.

T1 sequence (P27487 whole entry): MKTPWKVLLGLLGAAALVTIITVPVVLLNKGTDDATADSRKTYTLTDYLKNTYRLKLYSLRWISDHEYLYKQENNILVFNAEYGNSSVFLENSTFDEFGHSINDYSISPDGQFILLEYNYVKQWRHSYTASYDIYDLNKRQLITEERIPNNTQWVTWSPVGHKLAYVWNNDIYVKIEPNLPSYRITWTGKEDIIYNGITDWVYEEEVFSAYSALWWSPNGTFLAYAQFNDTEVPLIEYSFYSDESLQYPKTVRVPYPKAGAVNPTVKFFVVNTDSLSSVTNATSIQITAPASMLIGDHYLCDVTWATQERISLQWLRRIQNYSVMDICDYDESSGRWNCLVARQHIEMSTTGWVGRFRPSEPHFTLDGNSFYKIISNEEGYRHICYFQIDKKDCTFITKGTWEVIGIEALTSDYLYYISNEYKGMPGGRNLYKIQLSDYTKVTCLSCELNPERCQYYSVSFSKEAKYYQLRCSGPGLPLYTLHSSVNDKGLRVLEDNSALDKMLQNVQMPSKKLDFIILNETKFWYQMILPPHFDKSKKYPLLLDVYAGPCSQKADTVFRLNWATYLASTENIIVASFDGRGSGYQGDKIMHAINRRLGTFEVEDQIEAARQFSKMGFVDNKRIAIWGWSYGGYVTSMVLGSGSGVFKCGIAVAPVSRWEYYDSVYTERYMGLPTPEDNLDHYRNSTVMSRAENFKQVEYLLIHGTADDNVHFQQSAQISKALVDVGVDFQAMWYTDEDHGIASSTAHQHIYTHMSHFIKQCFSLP
Chain of α-glucosidase (EC 3.2.1.20, Baker Yeast) (P53341 whole entry): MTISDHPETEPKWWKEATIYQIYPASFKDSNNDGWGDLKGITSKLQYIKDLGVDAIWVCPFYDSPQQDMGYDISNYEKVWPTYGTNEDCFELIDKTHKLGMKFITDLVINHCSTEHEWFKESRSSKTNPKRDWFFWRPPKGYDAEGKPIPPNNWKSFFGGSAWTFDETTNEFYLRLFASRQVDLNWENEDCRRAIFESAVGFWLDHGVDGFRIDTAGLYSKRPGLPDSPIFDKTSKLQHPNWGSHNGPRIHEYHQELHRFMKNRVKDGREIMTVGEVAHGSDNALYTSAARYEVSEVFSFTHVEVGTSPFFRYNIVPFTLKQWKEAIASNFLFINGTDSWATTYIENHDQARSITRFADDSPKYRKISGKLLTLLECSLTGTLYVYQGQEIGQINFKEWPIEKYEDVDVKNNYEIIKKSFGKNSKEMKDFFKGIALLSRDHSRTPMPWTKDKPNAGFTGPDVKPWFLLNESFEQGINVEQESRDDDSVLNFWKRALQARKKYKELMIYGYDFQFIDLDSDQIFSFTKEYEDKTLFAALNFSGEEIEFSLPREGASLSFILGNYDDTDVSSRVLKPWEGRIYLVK

Row | SMILES | activation at 100 µM (MIN6 β-cells) [%] | DPPH Radical Scavenging Activity [1] [%] | inhibition at 100 µM [2] [%] | inhibition at 100 µM (RAW264.7 cells) [%] | inhibition at 200 µM (human recombinant DPP-IV; sample concentration 200 μM) [%] | IC50 [3] [µM] | DPP-4 Inhibitory Activity (%) (human recombinant DPP-IV; sample concentration 200 μM) | DPP-4 Inhibitory Activity (%) (human recombinant DPP-IV; sample concentration 200 μM, listed as quercetin) | LDL Oxidation Inhibitory Activity [3] [%] | increase in amount of insulin secretion relative to its aglycone (MIN6 β-cells) | inhibition at 200 µM (human recombinant DPP-IV) [%]
1 | O=c1c(O)c(-c2ccc(O)cc2)oc2cc(O)cc(O)c12 [Kaempferol, reference compound] | ≤ 19 | – | – | – | – | – | – | – | – | – | –
2 | C[C@@H]1O[C@@H](OC[C@H]2O[C@@H](Oc3c(-c4ccc(O)c(O)c4)oc4cc(O)cc(O)c4c3=O)[C@H](O[C@@H]3O[C@H](CO)[C@@H](O)[C@H](O)[C@H]3O)[C@@H](O)[C@@H]2O)[C@H](O)[C@H](O)[C@H]1O [Formula 2, quercetin 3-O-β-D-glucopyranosyl-(1→2)-[α-L-rhamnopyranosyl-(1→6)]-β-D-glucopyranoside] | 25.3 ± 3.3 | 52.0 ± 0.1 | 8.7 ± 2 | 31.8 ± 1.7 | 42.2 ± 0.9 | 1.9 | – | – | – | – | –
3 | C[C@@H]1O[C@@H](OC[C@H]2O[C@@H](Oc3c(-c4ccc(O)c(O)c4)oc4cc(O)cc(O)c4c3=O)[C@H](O[C@@H]3O[C@H](CO)[C@@H](O)[C@H](O)[C@H]3O)[C@@H](O)[C@H]2O)[C@H](O)[C@H](O)[C@H]1O [Formula 1, quercetin 3-O-β-D-glucopyranosyl-(1→2)-[α-L-rhamnopyranosyl-(1→6)]-β-D-galactopyranoside] | 2.1 ± 0.1 | 60.3 ± 1.4 | 10.8 ± 0.8 | 37.3 ± 1.8 | 48.4 ± 1 | 1.8 | – | – | – | – | –
4 | O=c1c(O)c(-c2ccc(O)c(O)c2)oc2cc(O)cc(O)c12 [Quercetin, reference compound] | 35.6 ± 3.4 | – | – | – | – | – | 14.5 ± 1.5 | 145 | – | – | –
5 | COc1cc(-c2oc3cc(O)cc(O)c3c(=O)c2O[C@@H]2OC(CO)[C@H](O)C(O)C2O[C@@H]2OC(C)[C@H](O)C(O)C2O)ccc1O (stereo partly drawn) [Formula 7, isorhamnetin 3-O-α-L-rhamnopyranosyl-(1→2)-β-D-galactopyranoside] | 106 ± 5.1 | 7.5 ± 0.6 | 22.7 ± 0.9 | 21.9 ± 0.6 | 48.1 | – | – | – | 55.7 | four | –
6 | O=c1c(O[C@@H]2OC(CO)[C@H](O)C(O)C2O[C@@H]2OC(CO)[C@@H](O)C(O)C2O)c(-c2ccc(O)c(O)c2)oc2cc(O)cc(O)c12 (stereo partly drawn) [Formula 3, quercetin 3-O-(2-β-D-glucopyranosyl)-β-D-galactopyranoside] | 37.8 ± 5.4 | 64.8 ± 0.9 | 63.9 ± 0.2 | 44.1 ± 2.8 | 46.7 ± 1.5 | 2.1 | – | – | – | – | –
7 | COc1cc(-c2oc3cc(O)cc(O)c3c(=O)c2O[C@@H]2OC(CO)[C@H](O)C(O)C2O[C@@H]2OC(CO)[C@@H](O)C(O)C2O)ccc1O (stereo partly drawn) [Formula 6, isorhamnetin 3-O-(2-β-D-glucopyranosyl)-β-D-galactopyranoside] | 38.5 ± 3.3 | 11.5 ± 0.5 | 26.2 ± 1.7 | 58.8 ± 0.9 | 39.4 | – | – | – | 65.7 | – | –
8 | CC1O[C@@H](OC2C(O)[C@@H](O)C(CO)O[C@H]2Oc2c(-c3ccc(O)c(O)c3)oc3cc(O)cc(O)c3c2=O)C(O)C(O)[C@H]1O (stereo partly drawn) [Formula 5, quercetin 3-O-(2-α-D-rhamnopyranosyl)-β-D-galactopyranoside] | 24.3 ± 2.7 | 85.9 ± 0.4 | 17.6 ± 2.3 | 23.7 ± 1.4 | – | 0.4 | – | – | – | – | 48.7 ± 0.4
9 | O=c1c(O[C@@H]2OC(CC[C@@H]3OC(O)[C@H](O)C(O)C3O)[C@H](O)C(O)C2O[C@@H]2OC(O)[C@H](O)C(O)C2O)c(-c2ccc(O)cc2)oc2cc(O)cc(O)c12 (some centres unmarked) [Comparative Example 3, reference compound] | ≤ 19 | 4.0 ± 0.6 | – | – | – | – | – | – | – | – | –
10 | O=c1c(O[C@@H]2OC(CO)[C@@H](O)C(O)C2O[C@@H]2OC(CO)[C@@H](O)C(O)C2O)c(-c2ccc(O)c(O)c2)oc2cc(O)cc(O)c12 (stereo partly drawn) [Formula 4, quercetin 3-O-(2-β-D-glucopyranosyl)-β-D-glucopyranoside] | 63.6 ± 2.6 | 59.5 ± 0.5 | 23.4 ± 2.3 | 26 ± 1.9 | 42.5 ± 1.5 | 2.3 | – | – | – | twice | –
11 | O=c1c(O[C@@H]2OC(CC[C@@H]3OC(O)[C@H](O)C(O)C3O)[C@H](O)C(O)C2O[C@@H]2OC(CO)[C@@H](O)C(O)C2O)c(-c2ccc(O)cc2)oc2cc(O)cc(O)c12 (some centres unmarked) [Comparative Example 2, reference compound] | – | 8.0 ± 0.7 | – | – | – | – | – | – | 28.4 | – | –
12 | O=c1c(-c2ccc(O)cc2)coc2cc(O[C@@H]3O[C@H](CO)[C@@H](O)[C@H](O)[C@H]3O)cc(O)c12 [Comparative Example 4, Genistin, reference compound] | – | 3.4 ± 0.7 | – | – | – | – | – | – | 41.3 | – | –
13 | COc1cc(-c2oc3cc(O)cc(O)c3c(=O)c2O)ccc1O [Isorhamnetin, reference compound] | 26.6 ± 4.1 | – | – | – | 21.6 | – | – | – | – | – | –
